Patent publication US20110028549A1, “USE OF A MONOTERPENE TO TREAT OR PREVENT STRESS” (AISA THERAPEUTICS, priority 2007, published 2011)

Tests used:
[1] = system: female rats Wistar HsdBrlHan; assay: Functional Observation Battery (FOB) in rats after oral treatment; type: in vivo, rat; details: for aggression (summary) / audible vocalization (summary) / body temperature (summary) / escapes after finger approach (summary) / interest for an object, curiosity (summary) / irritability (summary) / mictions (summary) / number of squares crossed (summary) / pain response (summary) / spontaneous activity (summary) / startle response (summary) / time before the rat falls (summary) / toe pinch reflex (summary) / wire manoeuvre (summary): FOB 1, 2 or 3 hours later, in comparison with the control; for capacity to tolerate stress: rats submitted to several stressful conditions, compared to vehicle-treated animals
Protocol: 1, 2 or 3 hours later, a Functional Observation Battery (FOB) was carried out.
Eighteen female rats Wistar HsdBrlHan EOPS (Ganat, France) with an average weight of 175-200 g are used. The 18 rats are weighed, marked and shared in 3 groups of 6 (n=6):
“control” group=oral treatment with maize oil;
“Perillic alcohol 10” group=oral treatment with perillic alcohol at 10 mg/kg;
The observations are carried out 60 minutes before treatment and 60, 120 and 180 minutes after the administration orally of the assayed products and comprise three observation phases:
a first direct observation phase during which the animal is not disturbed;
an active observation phase during which the animal is manipulated;
a phase dedicated to the evaluation of the responses of the animals towards the reactivity assays.
The studied variables are the following:
behavioural effects: spontaneous locomotive activity, locomotive behaviour troubles, anxiety, touch response, irritability, aggression and freezing caused behaviours, somnolence, number of defecations, number of mictions, sensor-motor responses (toe pinch response and sound response);
neurological effects: pupillary reflex, palpebral closure, pelvic elevation, tail position, limb and abdominal tones, reversal test, grip test, tremors and piloerection;
physiological effects: salivation, lacrimation, diarrhea, body temperature, respiratory rhythm.
Considering the Gaussian distribution or not of the data, parametric (P) or non-parametric (NP) tests are used: ANOVA (P) or Kruskal-Wallis test (NP) followed possibly by the Dunnett test (P) or the Mann-Whitney test (NP) to compare the treated groups with the control group. Statistics are carried out with the Statview 5 software (SAS, Institute Inc., USA).

isoprenylation enzymes = details: cited from earlier work
[2] = 100 mg/kg limonene ingested in a custard, 4 h after ingestion, GC/MS; cited from earlier work
[3] = cancer patients, doses which may have clinical activity; cited from earlier work
[4] = 10 mg/kg orally, T+60 min, Mann-Whitney test
[5] = 10 mg/kg orally, T+120 min, Mann-Whitney test
[6] = 10 mg/kg orally, T+180 min, Mann-Whitney test
[7] = 10 mg/kg orally, T+120 min, Mann-Whitney test vs. Control, n = 6
[8] = 10 mg/kg orally, T+180 min, Mann-Whitney test vs. Control, n = 6

Compound | duration of the effect ([1]; 10 mg/kg orally) | overall effect indicated by the FOB results ([1]; 10 mg/kg orally) | time to response (onset) ([1]; 10 mg/kg orally) | aggression (summary) ([1]; 10 mg/kg orally) | audible vocalization (summary) ([1]; 10 mg/kg orally) | body temperature (summary) ([1]; 10 mg/kg orally) | escapes after finger approach (summary) ([1]; 10 mg/kg orally) | interest for an object, curiosity (summary) ([1]; 10 mg/kg orally) | irritability (summary) ([1]; 10 mg/kg orally) | mictions (summary) ([1]; 10 mg/kg orally) | number of squares crossed (summary) ([1]; 10 mg/kg orally) | pain response (summary) ([1]; 10 mg/kg orally) | spontaneous activity (summary) ([1]; 10 mg/kg orally) | startle response (summary) ([1]; 10 mg/kg orally) | time before the rat falls (summary) ([1]; 10 mg/kg orally) | toe pinch reflex (summary) ([1]; 10 mg/kg orally) | wire manoeuvre (summary) ([1]; 10 mg/kg orally) | Audible vocalization vs control group [1, 4] | Interest for an object vs control group [1, 4] | inhibition of the isoprenylation enzymes (isoprenylation enzymes) | further results
C=C(C)[C@H]1CC=C(C)CC1 [Limonene, (4R)-1-methyl-4-isopropenylcyclohex-1-ene] | at least 3 hours | an appeasing, relaxing effect, an anti-pain effect and an effect on temper giving a cheerful character | less than one hour | no aggression | very poor | a decrease | less quickly escapes | an increase | no irritability | an increase | an increase | a high decrease | an increase | an important decrease | an increase | a decrease | an increase | significantly less vocalization | significantly more important | only weak inhibitors | Irritability vs control group [1, 4]: significantly less irritable; Toe pinch reflex vs control group [1, 4]: significantly less reactive; Audible vocalization vs control group [1, 5]: significantly less vocalization; Finger approach, escapes vs control group [1, 5]: significantly less escapes; Interest for an object vs control group [1, 5]: significantly more important; Irritability vs control group [1, 5]: significantly less irritable; Startles vs control group [1, 5]: significantly less startles; Audible vocalization vs control group [1, 6]: significantly less vocalization; Body temperature vs control group [1, 6]: significantly lower; Interest for an object vs control group [1, 6]: significantly higher; Number of squares crossed vs control group [1, 6]: significantly more squares; Startles vs control group [1, 6]: significantly less startles; Wire manoeuvre vs control group [1, 6]: significantly more often; capacity to tolerate stress [1]: an important effect leading to the capacity to tolerate stress; compounds (plasma metabolites) present in blood [2]: at least five compounds; identity of the two major plasma metabolite peaks [2]: dihydroperillic acid and perillic acid; tolerability [3]: well tolerated
C=C(C)[C@@H]1CC=C(CO)CC1 [Perillic alcohol, (S)-4-Isopropenyl-1-cyclohexenylmethanol] | already decreased after 2 hours | an appeasing, relaxing effect, an anti-pain effect and an effect on temper giving a cheerful character | less than one hour | no aggression | very poor | a decrease | less quickly escapes | an increase | no irritability | an increase | an increase | a high decrease | an increase | an important decrease | an increase | a decrease | an increase | tendancy to emit less vocalization | tendency to have a more important interest | more potent inhibitors | Irritability vs control group [1, 4]: significantly less irritable; Toe pinch reflex vs control group [1, 4]: significantly less reactive; Finger approach, escapes vs control group [1, 5]: significantly less escapes; Audible vocalization [1, 7]: N.S.; Interest for an object [1, 7]: N.S.; Irritability [1, 7]: N.S.; Startles [1, 7]: N.S.; Audible vocalization vs control group [1, 6]: tendency to emit less vocalization; Body temperature [1, 8]: N.S.; Interest for an object [1, 8]: N.S.; Number of squares crossed [1, 8]: N.S.; Startles [1, 8]: N.S.; Wire manoeuver [1, 8]: N.S.; capacity to tolerate stress [1]: an important effect leading to the capacity to tolerate stress; IC50 on isoprenylation enzymes (isoprenylation enzymes): low mM range
C=C(C)[C@@H]1CC=C(C(=O)O)CC1 [perillic acid] |  |  |  |  |  |  |  |  |  |  |  |  |  |  |  |  |  |  |  | more potent inhibitors | IC50 on isoprenylation enzymes (isoprenylation enzymes): low mM range
S-limonene |  |  |  |  |  |  |  |  |  |  |  |  |  |  |  |  |  |  |  | only weak inhibitors | 
